# Results as given in PubChem BioAssay (NCI).
#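 48-hour exposure; five concentrations; linearly interpolated endpoints. Definition used: TGI = concentration required for complete inhibition of growth.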
# Experiments:
# Assay in all cases: DTP human tumour cell line panel, 48 h
# OVCAR-3 ovarian = tested on: OVCAR-3 ovarian
# NCI-H23 lung = tested on: NCI-H23 lung
# HCC-2998 colon = tested on: HCC-2998 colon
# U251 CNS = tested on: U251 CNS
# SNB-75 CNS = tested on: SNB-75 CNS
# PC-3 prostate = tested on: PC-3 prostate
# SK-MEL-5 melanoma = tested on: SK-MEL-5 melanoma
# EKVX NSCLC = tested on: EKVX NSCLC
# SF-295 CNS = tested on: SF-295 CNS
# HCT-116 colon = tested on: HCT-116 colon
Structure (SMILES),TGI (OVCAR-3 ovarian) [µM],TGI (NCI-H23 lung) [µM],TGI (HCC-2998 colon) [µM],TGI (U251 CNS) [µM],TGI (SNB-75 CNS) [µM],TGI (PC-3 prostate) [µM],TGI (SK-MEL-5 melanoma) [µM],TGI (EKVX NSCLC) [µM],TGI (SF-295 CNS) [µM],TGI (HCT-116 colon) [µM]
COc1cc2cc(C(=O)N3CC(CCl)c4c3cc(NC(=O)OCc3ccc([N+](=O)[O-])cc3)c3ccccc43)[nH]c2c(OC)c1OC (stereo not given),> 100,> 45.4,16.3,> 100,67.3,> 100,> 100,> 100,> 56.2,> 79.8
CC(=O)OCc1cncn1S(=O)(=O)c1ccc(C)cc1,> 100,> 100,> 100,> 100,> 100,> 100,> 100,> 100,> 100,> 100
CCCC(O)c1cn(C(NC(=O)c2ccccc2)P(=O)(OCC)OCC)nn1 (stereo not given),> 100,> 100,> 100,> 100,> 100,> 100,> 100,> 100,> 100,> 100
COC(OC)C1OCC(n2cc(F)c(=O)[nH]c2=O)C1O (stereo not given),> 100,> 100,> 100,> 100,> 100,> 100,> 100,> 100,> 100,> 100
O=C(CCCCCC(=O)N1CC(CCl)c2ccc([N+](=O)[O-])cc21)N1CC(CCl)c2ccc([N+](=O)[O-])cc21 (stereo not given),> 100,> 100,> 100,> 100,> 100,> 100,> 100,> 100,> 100,> 100
CN(CCO)CCCC1COc2ccccc2O1 (stereo not given),> 100,> 100,> 100,> 100,> 100,> 100,> 100,> 100,> 100,> 100
CCCCCCCC(CC(=O)NC(CO)C(=O)NC(CO)CC(C)C)OC(=O)CC(CCCCCCC)OC(=O)CC(CCCCCCC)OC1OC(C)C(O)C(OC2OC(C)C(O)C(O)C2OC(C)=O)C1O (stereo not given),25.6,22,25.8,20.1,17.6,15.8,21.7,27.9,21.7,15.1
O=c1sc2c(s1)-c1sc(=O)sc1SS2,> 100,> 60.5,> 100,> 31.6,> 100,> 100,> 100,> 100,> 100,> 100
O=C(CCCCCCCCC(=O)N1C(=O)CC(=O)N(c2ccccc2)C1=S)N1C(=O)CC(=O)N(c2ccccc2)C1=S,> 100,> 100,> 100,> 100,> 100,> 100,> 100,> 100,> 100,> 100
CCO[C@@]1(COCc2ccccc2)OC(=O)C[C@@H]1N1C(=O)OC[C@@H]1c1ccccc1,> 100,> 100,> 100,> 100,> 100,> 100,> 100,> 100,> 100,> 100
COc1cc2oc(=O)cc(C)c2cc1O,> 100,> 100,> 100,> 100,> 100,> 100,> 100,> 100,> 100,> 100
C/C(=C\c1ccccc1)C(=O)NCc1ccc(C(=O)NCCc2ccccc2)cc1,> 100,> 100,> 100,> 100,19.5,> 100,> 100,> 100,98.8,> 100
O=C1c2ccccc2C(=O)c2sc(Nc3ccccc3C(F)(F)F)nc21,27.5,42.8,35.2,22.4,35.8,26.1,22.7,55.1,32.2,> 100
CCN(CC)C(=S)Nc1ccc(-c2cc3ccc(O)cc3oc2=O)cc1,78.3,> 100,39.8,85.1,> 100,> 100,48.8,> 100,> 100,> 100
C(=N\Nc1ccc(-c2nc3ccccc3[nH]2)cc1)/c1c(-c2ccc(Cc3ccccc3)cc2)[nH]c2ccccc12,> 59.5,59.5,30.9,> 51.2,41.2,39.2,> 52.8,> 100,27.9,> 68.4
O=[N+]([O-])c1ccc(N/N=C/CC(O)(C(F)(F)F)C(F)(F)F)c([N+](=O)[O-])c1,8.46,> 10,> 10,> 10,> 10,> 10,> 10,> 10,> 10,> 10
CC(C)CCCC(C)[C@H]1CC[C@H]2[C@@H]3CC[C@H]4C[C@@H](CCC=C(c5cc(Cl)c(O)c(C(=O)OC(C)C)c5)c5cc(Cl)c(O)c(C(=O)OC(C)C)c5)CC[C@]4(C)[C@H]3CC[C@]12C (stereo not given in full),> 50,> 50,> 50,> 50,> 50,> 50,> 50,> 50,> 50,> 50
